Laboratory results from the kinase profiling compilation of Christmann-Franck et al. (2016).

Legend:
Test in all cases: KINOMEscan competition binding
Conditions in all cases: compound 0.5 µM
[1] = molecular target: MLTK (human) (UniProt Q9NYL2)
[2] = molecular target: ROCK1 (human) (UniProt Q13464)
[3] = molecular target: ACVR1B (human) (UniProt P36896)
[4] = molecular target: PRKCD (human) (UniProt Q05655)
[5] = molecular target: CDK9 (human) (UniProt P50750)
[6] = molecular target: PRKACA (human) (UniProt P17612)
[7] = molecular target: MAPK9 (human) (UniProt P45984)
[8] = molecular target: MAP2K5 (human) (UniProt Q13163)
[9] = molecular target: LTK (human) (UniProt P29376)
[10] = molecular target: MARK3 (human) (UniProt P27448)
[11] = molecular target: RPS6KA1 KD2 (human) (UniProt Q15418)
Sequence of RPS6KA1 KD2 (human) (Q15418 whole entry, looked up): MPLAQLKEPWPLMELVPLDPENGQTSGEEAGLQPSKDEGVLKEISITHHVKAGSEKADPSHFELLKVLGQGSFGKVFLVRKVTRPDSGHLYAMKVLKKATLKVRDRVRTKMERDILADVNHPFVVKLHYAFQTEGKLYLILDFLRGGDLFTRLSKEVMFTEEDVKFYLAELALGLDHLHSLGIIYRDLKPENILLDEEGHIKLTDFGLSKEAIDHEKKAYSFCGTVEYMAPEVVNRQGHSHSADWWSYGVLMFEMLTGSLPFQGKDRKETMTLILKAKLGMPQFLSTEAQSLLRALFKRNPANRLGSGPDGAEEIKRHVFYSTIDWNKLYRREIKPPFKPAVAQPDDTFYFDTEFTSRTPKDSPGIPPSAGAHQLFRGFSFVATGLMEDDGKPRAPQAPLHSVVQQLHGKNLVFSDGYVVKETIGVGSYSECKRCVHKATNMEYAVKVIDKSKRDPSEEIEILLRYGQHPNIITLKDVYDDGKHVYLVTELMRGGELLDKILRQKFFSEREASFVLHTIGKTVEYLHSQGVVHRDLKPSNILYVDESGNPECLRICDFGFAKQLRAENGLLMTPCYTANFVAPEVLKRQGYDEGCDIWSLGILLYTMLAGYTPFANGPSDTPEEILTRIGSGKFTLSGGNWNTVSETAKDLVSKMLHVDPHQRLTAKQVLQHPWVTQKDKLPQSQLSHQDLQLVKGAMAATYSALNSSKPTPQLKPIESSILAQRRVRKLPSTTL

[12] = molecular target: MAP3K12 (human) (UniProt Q12852)
[13] = molecular target: ALK (human) (UniProt Q9UM73)
[14] = molecular target: MUSK (human) (UniProt O15146)
[15] = molecular target: JAK1 JH2 pseudokinase (human) (UniProt P23458)
[16] = molecular target: PTK2B (human) (UniProt Q14289)
[17] = molecular target: PIK3CG (human) (UniProt P48736)
[18] = molecular target: CIT (human) (UniProt O14578)
[19] = molecular target: MAP2K4 (human) (UniProt P45985)
Sequence of MAP2K4 (human) (P45985 whole entry, looked up): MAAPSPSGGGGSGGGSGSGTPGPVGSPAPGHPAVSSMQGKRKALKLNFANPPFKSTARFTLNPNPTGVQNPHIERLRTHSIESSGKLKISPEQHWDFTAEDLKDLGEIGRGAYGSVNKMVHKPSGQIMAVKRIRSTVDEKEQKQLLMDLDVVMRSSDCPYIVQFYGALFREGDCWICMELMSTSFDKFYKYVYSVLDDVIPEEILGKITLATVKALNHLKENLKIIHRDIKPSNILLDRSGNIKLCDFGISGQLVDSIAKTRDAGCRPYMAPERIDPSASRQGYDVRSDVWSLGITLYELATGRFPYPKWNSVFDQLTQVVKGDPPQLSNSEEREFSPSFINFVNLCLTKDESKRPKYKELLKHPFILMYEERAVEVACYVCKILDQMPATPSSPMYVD

[20] = molecular target: PHKG1 (human) (UniProt Q16816)
Sequence of PHKG1 (human) (Q16816 whole entry, looked up): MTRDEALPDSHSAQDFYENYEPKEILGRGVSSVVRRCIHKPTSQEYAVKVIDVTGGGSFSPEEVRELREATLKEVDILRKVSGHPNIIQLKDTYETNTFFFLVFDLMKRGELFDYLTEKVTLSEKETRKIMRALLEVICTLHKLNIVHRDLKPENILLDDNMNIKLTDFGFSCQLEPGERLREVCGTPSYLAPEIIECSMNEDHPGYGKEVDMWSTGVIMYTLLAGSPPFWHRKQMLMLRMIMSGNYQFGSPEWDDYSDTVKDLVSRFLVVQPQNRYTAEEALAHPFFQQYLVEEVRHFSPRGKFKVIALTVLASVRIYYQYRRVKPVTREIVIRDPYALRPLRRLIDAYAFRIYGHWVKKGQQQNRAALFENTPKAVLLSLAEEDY

[21] = molecular target: PIP5K1C (human) (UniProt O60331)
[22] = molecular target: GRK7 (human) (UniProt Q8WTQ7)
[23] = molecular target: TGFBR1 (human) (UniProt P36897)
[24] = molecular target: CLK2 (human) (UniProt P49760)
[25] = molecular target: CAMK4 (human) (UniProt Q16566)
[26] = molecular target: TYK2 JH2 pseudokinase (human) (UniProt P29597)
Sequence of TYK2 JH2 pseudokinase (human) (P29597 whole entry, looked up): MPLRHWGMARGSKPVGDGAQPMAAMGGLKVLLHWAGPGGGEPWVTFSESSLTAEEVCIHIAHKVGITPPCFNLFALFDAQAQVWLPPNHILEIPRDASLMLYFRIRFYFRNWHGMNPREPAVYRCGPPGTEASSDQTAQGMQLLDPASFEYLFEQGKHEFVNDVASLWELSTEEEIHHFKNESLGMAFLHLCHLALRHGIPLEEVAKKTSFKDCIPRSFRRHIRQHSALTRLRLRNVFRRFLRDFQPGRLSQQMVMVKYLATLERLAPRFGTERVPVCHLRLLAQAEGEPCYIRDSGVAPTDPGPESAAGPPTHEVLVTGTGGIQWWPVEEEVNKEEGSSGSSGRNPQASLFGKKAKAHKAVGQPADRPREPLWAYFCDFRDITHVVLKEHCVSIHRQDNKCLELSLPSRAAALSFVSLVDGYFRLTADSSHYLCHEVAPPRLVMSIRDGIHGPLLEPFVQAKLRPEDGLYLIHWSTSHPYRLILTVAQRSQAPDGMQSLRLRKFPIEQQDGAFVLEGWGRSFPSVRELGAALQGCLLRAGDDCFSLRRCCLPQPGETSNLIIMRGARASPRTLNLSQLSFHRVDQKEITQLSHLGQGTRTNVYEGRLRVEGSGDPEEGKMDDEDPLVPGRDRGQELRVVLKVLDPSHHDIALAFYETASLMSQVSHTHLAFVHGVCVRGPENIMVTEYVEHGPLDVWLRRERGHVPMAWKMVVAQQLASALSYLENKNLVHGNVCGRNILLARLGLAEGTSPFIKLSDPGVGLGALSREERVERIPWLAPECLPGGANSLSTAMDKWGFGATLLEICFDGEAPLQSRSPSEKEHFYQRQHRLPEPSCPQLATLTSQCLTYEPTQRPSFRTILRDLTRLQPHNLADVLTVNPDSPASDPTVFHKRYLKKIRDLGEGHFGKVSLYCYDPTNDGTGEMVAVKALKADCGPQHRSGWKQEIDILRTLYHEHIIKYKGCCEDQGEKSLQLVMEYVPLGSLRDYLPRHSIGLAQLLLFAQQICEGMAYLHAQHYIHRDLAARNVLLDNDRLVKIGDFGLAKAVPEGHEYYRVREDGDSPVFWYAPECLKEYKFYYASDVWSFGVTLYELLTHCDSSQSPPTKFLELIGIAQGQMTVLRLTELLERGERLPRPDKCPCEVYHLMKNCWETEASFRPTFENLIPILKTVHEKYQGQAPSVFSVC

[27] = system: ABL1 (human), P00519 [M351T]
[28] = molecular target: NEK2 (human) (UniProt P51955)
[29] = molecular target: PIK3C2G (human) (UniProt O75747)
[30] = molecular target: CRK2 (P.falciparum) (UniProt P61075)
[31] = molecular target: ADCK3 (human) (UniProt Q8NI60)
[32] = molecular target: IGF1R (human) (UniProt P08069)
Sequence of IGF1R (human) (P08069 whole entry, looked up): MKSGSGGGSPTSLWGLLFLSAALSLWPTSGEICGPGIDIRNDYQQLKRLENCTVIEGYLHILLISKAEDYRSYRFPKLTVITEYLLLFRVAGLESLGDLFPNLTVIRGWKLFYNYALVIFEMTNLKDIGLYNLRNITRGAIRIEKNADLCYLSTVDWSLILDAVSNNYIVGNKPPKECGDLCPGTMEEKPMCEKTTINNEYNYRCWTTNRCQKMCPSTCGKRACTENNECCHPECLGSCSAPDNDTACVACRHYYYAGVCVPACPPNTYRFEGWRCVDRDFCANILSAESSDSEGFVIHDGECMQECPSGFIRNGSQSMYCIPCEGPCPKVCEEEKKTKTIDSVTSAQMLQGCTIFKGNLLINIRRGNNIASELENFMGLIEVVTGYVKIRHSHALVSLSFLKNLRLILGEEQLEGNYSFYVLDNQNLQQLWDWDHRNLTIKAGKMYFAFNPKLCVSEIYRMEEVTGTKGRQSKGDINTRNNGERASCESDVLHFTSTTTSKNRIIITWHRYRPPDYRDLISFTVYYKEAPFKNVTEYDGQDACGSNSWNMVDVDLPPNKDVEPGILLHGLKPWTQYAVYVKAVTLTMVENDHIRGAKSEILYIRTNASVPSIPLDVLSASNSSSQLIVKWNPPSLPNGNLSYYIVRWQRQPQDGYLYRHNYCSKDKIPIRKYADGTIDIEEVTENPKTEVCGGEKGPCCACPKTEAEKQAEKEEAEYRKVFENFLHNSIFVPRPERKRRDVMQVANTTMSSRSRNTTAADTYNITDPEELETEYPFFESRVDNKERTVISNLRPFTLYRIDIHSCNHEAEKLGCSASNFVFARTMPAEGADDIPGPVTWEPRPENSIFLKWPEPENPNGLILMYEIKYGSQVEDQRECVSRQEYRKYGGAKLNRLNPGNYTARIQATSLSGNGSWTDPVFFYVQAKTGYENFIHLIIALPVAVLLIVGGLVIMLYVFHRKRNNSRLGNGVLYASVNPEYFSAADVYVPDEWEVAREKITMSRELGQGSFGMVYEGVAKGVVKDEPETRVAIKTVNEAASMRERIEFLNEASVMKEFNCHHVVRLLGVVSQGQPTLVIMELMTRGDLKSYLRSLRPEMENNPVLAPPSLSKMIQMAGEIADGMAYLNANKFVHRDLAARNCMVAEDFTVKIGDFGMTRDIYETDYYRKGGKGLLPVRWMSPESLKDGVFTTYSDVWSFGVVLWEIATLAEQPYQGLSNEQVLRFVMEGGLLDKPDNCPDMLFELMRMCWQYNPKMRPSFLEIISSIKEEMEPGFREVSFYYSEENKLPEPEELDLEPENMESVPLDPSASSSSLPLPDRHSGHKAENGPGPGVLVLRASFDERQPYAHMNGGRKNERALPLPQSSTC

[33] = molecular target: TNK1 (human) (UniProt Q13470)
[34] = molecular target: TLK2 (human) (UniProt Q86UE8)
Sequence of TLK2 (human) (Q86UE8 whole entry, looked up): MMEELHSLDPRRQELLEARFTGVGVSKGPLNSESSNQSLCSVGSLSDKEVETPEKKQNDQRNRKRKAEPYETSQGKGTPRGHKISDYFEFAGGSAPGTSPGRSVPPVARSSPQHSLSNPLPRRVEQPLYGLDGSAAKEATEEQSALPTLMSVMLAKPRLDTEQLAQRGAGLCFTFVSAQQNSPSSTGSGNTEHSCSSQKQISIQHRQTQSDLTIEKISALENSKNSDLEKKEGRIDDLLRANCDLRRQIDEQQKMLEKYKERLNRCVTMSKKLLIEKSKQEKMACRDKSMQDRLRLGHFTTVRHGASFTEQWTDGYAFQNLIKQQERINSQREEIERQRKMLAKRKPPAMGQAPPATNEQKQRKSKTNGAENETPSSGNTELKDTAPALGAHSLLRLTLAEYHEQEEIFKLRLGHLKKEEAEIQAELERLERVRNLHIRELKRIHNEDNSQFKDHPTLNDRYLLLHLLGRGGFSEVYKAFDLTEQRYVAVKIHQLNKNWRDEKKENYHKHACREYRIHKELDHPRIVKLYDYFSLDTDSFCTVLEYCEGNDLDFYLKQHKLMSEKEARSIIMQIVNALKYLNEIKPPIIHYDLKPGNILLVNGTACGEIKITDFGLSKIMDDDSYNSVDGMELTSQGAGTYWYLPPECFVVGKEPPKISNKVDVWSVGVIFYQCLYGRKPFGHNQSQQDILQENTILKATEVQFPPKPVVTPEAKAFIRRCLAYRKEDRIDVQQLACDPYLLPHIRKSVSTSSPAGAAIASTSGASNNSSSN

[35] = molecular target: PIM2 (human) (UniProt Q9P1W9)
[36] = molecular target: BMP2K (human) (UniProt Q9NSY1)
[37] = molecular target: CAMK1G (human) (UniProt Q96NX5)
[38] = molecular target: STK3 (human) (UniProt Q13188)
[39] = molecular target: CDC42BPG (human) (UniProt Q6DT37)
[40] = molecular target: IRAK1 (human) (UniProt P51617)
[41] = molecular target: TNK2 (human) (UniProt Q07912)
[42] = molecular target: MET (human) (UniProt P08581)

For `Cn1c2ccccc2c2c3c(c4c5ccccc5n(CCC#N)c4c21)CNC3=O`, the kinase still bound, per cent of control [1] was 96%, the kinase still bound, per cent of control [2] was 22% and the kinase still bound, per cent of control [3] was 85%. The kinase still bound, per cent of control [4] was 43%, the kinase still bound, per cent of control [5] was 100% and the kinase still bound, per cent of control [6] was 100%. For the same compound, the kinase still bound, per cent of control [7] was 46%, the kinase still bound, per cent of control [8] was 58% and the kinase still bound, per cent of control [9] was 4.2%. For the same compound, the kinase still bound, per cent of control [10] was 16%, the kinase still bound, per cent of control [11] was 88% and the kinase still bound, per cent of control [12] was 89%. It also gave a kinase still bound, per cent of control [13] of 2.1%, a kinase still bound, per cent of control [14] of 100% and a kinase still bound, per cent of control [15] of 75%. It also gave a kinase still bound, per cent of control [16] of 19%, a kinase still bound, per cent of control [17] of 3.1% and a kinase still bound, per cent of control [18] of 34%. It also gave a kinase still bound, per cent of control [19] of 1.2%, a kinase still bound, per cent of control [20] of 0.1% and a kinase still bound, per cent of control [21] of 100%. The kinase still bound, per cent of control [22] was 10%, the kinase still bound, per cent of control [23] was 79% and the kinase still bound, per cent of control [24] was 38%. It also gave a kinase still bound, per cent of control [25] of 100%, a kinase still bound, per cent of control [26] of 84% and a kinase still bound, per cent of control [27] of 88%. For the same compound, the kinase still bound, per cent of control [28] was 100%, the kinase still bound, per cent of control [29] was 70% and the kinase still bound, per cent of control [30] was 85%. For the same compound, the kinase still bound, per cent of control [31] was 100%, the kinase still bound, per cent of control [32] was 85% and the kinase still bound, per cent of control [33] was 2%. The kinase still bound, per cent of control [34] was 88%, the kinase still bound, per cent of control [35] was 100% and the kinase still bound, per cent of control [36] was 3.4%. For the same compound, the kinase still bound, per cent of control [37] was 66%, the kinase still bound, per cent of control [38] was 0.8% and the kinase still bound, per cent of control [39] was 100%. It also gave a kinase still bound, per cent of control [40] of 14%, a kinase still bound, per cent of control [41] of 18% and a kinase still bound, per cent of control [42] of 88%.
